# Measurements: patent publication US20230127442A1, “COMPOSITIONS FOR INCREASING ETHANOL PRODUCTION AND RELATED METHODS” (KEMIN INDUSTRIES, INC., priority 2021, published 2023)
# How the values were obtained:
# yeast [1] = test: Corn mash fermentation, 48 hours, heat stress at 38° C. after 24 hours, ethanol by HPLC (Example 1); format: cell-based; conditions: 48 hours total, heat stress 38° C. for last 24 hours
# Excerpt: (§1) Lutein (FloraGLO®): Lutein crystals were purified from marigolds and suspended in oil. Acerola extract (Fortium® A): Acerola fruit grown from Malpighia emarginata, water extract. Spearmint Extract (Neumentix®): Spearmint leaves grown from Mentha spicata L. (Kemin Industries, Inc. proprietary lines KI-MsEM0042, KI-MsEM0110), water extract. Aqueous Tea Extract (AssuriTEA® Green): Tea leaves grown from Camellia sinensis, water extract. Solvent Extracted Tea (Fortium® GT107): Tea leaves grown from Camellia sinensis and extracted with acetone and ethyl acetate, solvent extract. Rosemary Extract (Fortium® M): Rosemary leaves grown from Rosmarinus officinalis extracted with either acetone and TFE or ethanol. Mixed Tocopherols (Fortium® MT): Mixed tocopherols are extracted from vegetable oils with hexane, ethanol, and methanol. Lipid-Soluble Green Tea (GT-FORT): Tea leaves grown from Camellia sinensis and extracted with ethyl acetate, dichloromethane, and ethanol. Synthetic antioxidants: TBHQ (tert-butylhydroquinone) and BHT (butylated hydroxytoluene); tert-butlyhydroquinone was solubilized in propylene glycol and butylated hydroxytoluene was solubilized in ethanol. In alternative embodiments, the synthetic antioxidants are suspended in liquid or solubilized in liquid, including but not limited to water and organic solvents or combinations thereof.
# Dry yeast was added to corn mash containing urea, protease, phytase, and glucoamylase. Lutein, a fat-soluble antioxidant, was added to the mash at 200, 1,000, or 2,000 mg/L. Dried aqueous tea extract or spearmint extract containing antioxidants were added to the corn mash at 100, 1,000, or 5,000 mg/L. Corn mash containing no added antioxidants was included in the experiment as a control group (Control). The corn mash was fermented in a temperature-controlled incubator shaker for 24 hours at 33° C. Following 24 hours, the yeast in the corn mash were subjected to heat stress by increasing the temperature to 38° C. and the corn mash fermented for another 24 hours for a total fermentation time of 48 hours. Ethanol levels were measured by HPLC.
# yeast [2] = test: Corn mash fermentation with synthetic antioxidants, 24 hours at 33° C. then heat stress at 37° C. to 72 hours, ethanol by HPLC (Example 6); format: cell-based; conditions: for increase in ethanol content at 24 hour compared to control: before heat stress
# Excerpt: as §1
# Dry yeast was added to corn mash containing urea, protease, phytase, and glucoamylase. tert-Butylhydroquinone (0.0001, 0.001, or 0.01 mg/L) and butylated hydroxytoluene (0.0001, 0.001, or 0.01 mg/L were added to the corn mash. Corn mash containing no antioxidants was included in the experiment as a Control. The corn mash was fermented in a temperature-controlled incubator shaker for 24 hours at 33° C. Following 24 hours, the yeast in the corn mash were subjected to heat stress by increasing the temperature to 37° C. and the corn mash fermented for another 48 hours for a total fermentation time of 72 hours. Ethanol levels were measured by HPLC.
smiles,measurement,setting,value
"CC1=C[C@H](O)CC(C)(C)[C@H]1/C=C/C(C)=C/C=C/C(C)=C/C=C/C=C(C)/C=C/C=C(C)/C=C/C1=C(C)C[C@@H](O)CC1(C)C [lutein, Lutein]",increase in ethanol content of corn mash compared to Control,yeast [1]; 200 mg/L,4%
same,increase in ethanol content of corn mash compared to Control,"yeast [1]; 1,000 mg/L",7%
same,increase in ethanol content of corn mash compared to Control,"yeast [1]; 2,000 mg/L",10%
Cc1cc(C(C)(C)C)c(O)c(C(C)(C)C)c1 [butylated hydroxytoluene],change of ethanol content of corn mash through 72 hours compared to control,"yeast [2]; 72 hours, following heat stress 37° C., 0.0001, 0.001 or 0.01 mg/L",slightly decreased
"CC(C)(C)c1cc(O)ccc1O [tert-Butylhydroquinone, tert-butylhydroquinone]",increase in ethanol content at 24 hour compared to control,"yeast [2]; 0.0001 mg/L, first 24 hours at 33° C.",up to 0.4%
same,increase in ethanol content at 24 hour compared to control,"yeast [2]; 0.01 mg/L, first 24 hours at 33° C.",up to 1.8%
same,increase in ethanol content at 72 hour compared to control,"yeast [2]; 72 hours, following heat stress 37° C., highest increase among 0.0001, 0.001 or 0.01 mg/L",≤ 2.8%
same,change of ethanol content of corn mash over the first 24 hours compared to control,"yeast [2]; first 24 hours at 33° C., FIG. 17, 0.0001, 0.001 or 0.01 mg/L",decreased
